Data reported in patent US9090651B2, “Helix 12 directed pharmaceutical products” (ENDORECHERCHE, INC., priority 2004, dated 2015).
Several values for one entry are separate records, joined by “and”; a condition that tells them apart may be missing. Equal entries are not always repeated. Where two headings read alike, the source gives them in different places.

Key:
[1] = tested on: sebaceous glands of the left ear; assay: Topical antiandrogenic activity, ear sebaceous glands model in the male hamster; assay type: in vivo; conditions: Mesocricetus auratus, 336 h, topical on left pinna, read-out: Antiandrogenic activity in Hamster Ear Area Inh Vs Cx (%); for inhibition in vivo at 0.1 mg: 100 μg daily for 14 days; for inhibition in vivo at 0.01 mg: 10 μg daily for 14 days
Description: The antiandrogenic activity of compounds for topical use was determined using the ear sebaceous glands model in the male hamster.
Male Golden Syrian Hamsters (SYR) of 110-120 g were obtained from Harlan Sprague-Dawley (Madison, USA) and housed up to 2 per plastic cage in a temperature (22±3° C.) and light (12 h light/day, lights on at 7 h15)-controlled environment. The hamsters were fed with Certified Rodent Diet 5002 (pellet) and had access to tap water ad libitum. The animals were acclimatized for at least five days prior to beginning the study. Animals were randomly assigned to groups of eight hamsters. One group of hamsters were castrated under isoflurane-induced anesthesia on the day of dosing initiation (SD 1) and used as control group.
To evaluate the antiandrogenic activity, the tested compounds were applied topically on the inner part of the left ear, once daily, for 14 days. […] For animals of the castrated and intact control groups, one ten-μL vehicle was applied onto the left ear. No solution was applied on the right ear.
On Study Day 15, the hamsters were euthanized by cervical dislocation under isoflurane anesthesia. The left and right ears were collected attached together by the head skin, flat fixed on a paper and then immersed in 10% neutral buffered formalin. Punctures making a circular hole of 6 mm were made on the flat fixed ear in the region where the solution has been applied. These punch-made specimens were collected from each ear. Using a scalpel blade, the collected 6 mm round ear specimens were cut in the middle between the two cartilage ridges. The two equal parts of the ear round specimens were embedded in paraffin. After processing the tissue, the two parts were vertically embedded parallel to each other in such a way that the flat 6 mm area was facing out. From each paraffin block, one section (5 μm thick) was cut and collected on a glass slide. Thus, each slide contained two elongated sections of 6 mm length. Slides were stained with hematoxylin and eosin.
Using the video camera and the lens number X5 of the light microscope, the resulting field appearing on the screen has a length of 0.953 mm. When the first 6 mm long section was examined from the left to the right, the first and second fields were ignored and the third and fourth fields were captured for analysis by the image analyzer. Each field has the length of 0.953 mm. With the help of the screen mouse, the sebaceous glands within the whole field length (0.953 mm) were marked. Also, an area having the length of the whole field and the height between stratum granulosum and the upper edge of the cartilage was drawn.
The total area of the sebaceous glands (μm^2) in each examined field was calculated by the Image Analyser. We also measured the total area, which has the length of 0.953 mm and the height between stratum granulosum and the cartilage. In addition, the percentage of the area occupied by the glands was obtained. Thus, for each ear, two sections were cut and two fields from each section were analyzed. The total of the four readings was averaged and the mean standard error of the mean was calculated by the image analyzer. The results were expressed in μm^2 as the total surface of glands per field and also as percentage of the area occupied by the glands in the tissue.

rat seminal vesicle = assay: Systemic antiandrogenic activity, orchidectomized immature male rats with DHT implant: seminal vesicle weight; assay type: in vivo; conditions: for inhibition in vivo at 0.5 mg: Rattus norvegicus, 168 h
Description: (§1) Immature male rats (Crl:CD(SD)Br) 22 to 24-day old were obtained from Charles-River, Inc. (St-Constant, Quebec, Canada) and housed up to 5 per cage in plastic bins in a temperature (23±1° C.)- and light (12 h light/day, lights on at 7 h15)-controlled environment. The rats were fed rodent chow and tap water ad libitum. The day following their arrival, the animals were orchidectomized (CX) under Isoflurane anesthesia via scrotal route and randomly assigned to groups of 5 animals.
(§2) Compounds were solubilized (when possible) in dimethylsulfoxide (DMSO, 10% final concentration) and administered as suspension in 0.4% methylcellulose. […] One group of animals received the antiandrogen Flutamide as reference. The animals were killed by cervical dislocation under isoflurane anesthesia on the 8th morning following castration. The ventral prostate and seminal vesicles were rapidly dissected and weighed.
(§3) W is the weight of the prostate or the seminal vesicle.

rat prostate = assay: Systemic antiandrogenic activity, orchidectomized immature male rats with DHT implant: prostate weight; assay type: in vivo; conditions: for inhibition in vivo at 0.5 mg: Rattus norvegicus, 168 h
Description: as §1, §2, §3

Human Androgen Receptor = molecular target: T1, Human Androgen Receptor (Homo sapiens, UniProt P10275); assay: Androgen receptor binding assay (hydroxylapatite, [3H]R1881, cytosol of transfected HEK-293 cells); conditions: for Androgen Receptor Binding (%) Human RBA R1881 = 100: % RBA=100×IC50 R1881/IC50 compound, transfected cells; for RBA human: Table 4, relative to R1881
T1 sequence (P10275 1-920): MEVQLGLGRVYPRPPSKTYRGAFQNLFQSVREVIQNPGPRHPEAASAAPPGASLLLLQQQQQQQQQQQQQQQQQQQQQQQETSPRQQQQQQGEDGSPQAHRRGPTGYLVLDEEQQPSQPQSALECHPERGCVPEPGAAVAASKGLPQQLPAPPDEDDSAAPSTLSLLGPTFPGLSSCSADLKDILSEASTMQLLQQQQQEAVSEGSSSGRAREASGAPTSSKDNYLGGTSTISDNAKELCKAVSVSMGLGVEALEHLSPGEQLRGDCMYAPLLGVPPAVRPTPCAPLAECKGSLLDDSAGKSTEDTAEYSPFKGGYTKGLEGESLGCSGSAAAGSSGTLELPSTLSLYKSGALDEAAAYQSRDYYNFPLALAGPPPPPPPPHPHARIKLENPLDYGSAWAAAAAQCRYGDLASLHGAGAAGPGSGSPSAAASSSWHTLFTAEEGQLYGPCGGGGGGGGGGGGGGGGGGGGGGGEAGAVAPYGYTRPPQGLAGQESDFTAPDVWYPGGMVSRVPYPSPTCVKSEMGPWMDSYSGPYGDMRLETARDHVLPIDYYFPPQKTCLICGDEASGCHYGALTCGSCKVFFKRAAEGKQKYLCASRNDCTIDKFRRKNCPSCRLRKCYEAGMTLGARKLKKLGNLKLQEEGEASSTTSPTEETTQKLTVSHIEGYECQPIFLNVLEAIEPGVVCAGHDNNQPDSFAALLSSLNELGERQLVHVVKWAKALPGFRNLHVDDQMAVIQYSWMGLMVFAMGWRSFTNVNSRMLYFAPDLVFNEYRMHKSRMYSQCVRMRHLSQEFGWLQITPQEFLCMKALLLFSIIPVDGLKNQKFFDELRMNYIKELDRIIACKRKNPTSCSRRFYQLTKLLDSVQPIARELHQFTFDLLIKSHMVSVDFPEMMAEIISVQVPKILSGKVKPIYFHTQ

[2] = tested on: Shionogi mouse mammary carcinoma cells; assay: Androgenic/antiandrogenic activity on DHT-stimulated Shionogi cell growth; assay type: cell-based; conditions: for Shionogi VS OH-FLU: ratio of Ki hydroxyflutamide versus tested compound
[3] = po, 0.5 mg, per os, read-out: SV RAT Inh % inh (0.5 mg, per os)
[4] = po, 0.5 mg, per os, read-out: Prostate Rat Inh % inh (0.5 mg, per os)
[5] = Mus musculus, read-out: Shionogi Antiandrogenic activity IC50 (nM), inhibition of DHT-stimulated Shionogi cell number
[6] = Mus musculus, read-out: Shionogi IC50 (nM), Table 4, inhibition of DHT-stimulated Shionogi cell number
[7] = sc, read-out: IN VIVO Rat s.c. (+DHT) SV % inhibition, s.c., 0.5 mg/animal once daily for 7 days, +DHT
[8] = sc, read-out: IN VIVO Rat s.c. (+DHT) Prostate % inhibition, s.c., 0.5 mg/animal once daily for 7 days, +DHT
[9] = s.c., 0.5 mg/animal once daily for 7 days, +DHT
[10] = read-out: Shionogi Antiandrogenic activity IC50, inhibition of DHT-stimulated Shionogi cell number

SMILES | Androgen Receptor Binding (%) Human RBA R1881 = 100 (Human Androgen Receptor) | RBA human (Human Androgen Receptor) | IC50 [2, 5] | IC50 [2, 6] | Shionogi VS OH-FLU ([2]; Table 4) | inhibition in vivo at 0.5 mg (rat seminal vesicle; [7]) | inhibition in vivo at 0.5 mg (rat prostate; [8]) | also measured
CCCCCN1CCCCC1c1cccc(OCC[C@]23CCC4C(CCC5CC(=O)CC[C@@]54C)C2CC[C@@H]3O)c1 (stereo partly drawn) [EM-6494] | 63% and 97% | 97% | 10.5 nM | 10.5 nM | 5.4 | – | – | inhibition in vivo at 0.1 mg [1]: 68%; inhibition in vivo at 0.5 mg (rat seminal vesicle; [3]): 1%; inhibition in vivo at 0.5 mg (rat prostate; [4]): 0%
CCC[C@H](NC(CC)CC)c1cccc(OCC[C@]23CCC4C(CCC5CC(=O)CC[C@@]54C)C2CC[C@@H]3O)c1 (stereo in doubt) [EM-6445] | 168% | 336% | 0.2 nM | 0.2 nM | 231 | – | – | inhibition in vivo at 0.1 mg [1]: 96%; inhibition in vivo at 0.5 mg (rat seminal vesicle; [3]): 0%; inhibition in vivo at 0.5 mg (rat prostate; [4]): 3%
CCC[C@H](NC1CCCCC1)c1cccc(OCC[C@]23CCC4C(CCC5CC(=O)CC[C@@]54C)C2CCC3=O)c1 (stereo partly drawn) [EM-6736] | – | 154% | – | 1.8 nM | 43 | – | – | inhibition in vivo at 0.01 mg [1]: 49.5%
CCN(C1CCCCC1)[C@H](C)c1cccc(OCC[C@]23CCC4C(CCC5CC(=O)CC[C@@]54C)C2CC[C@@H]3O)c1 (stereo partly drawn) [EM-6414] | 121% | 71% | 4 nM | 4 nM | 1 | – | – | inhibition in vivo at 0.01 mg [1]: 55%; inhibition in vivo at 0.1 mg [1]: 64%; inhibition in vivo at 0.5 mg (rat seminal vesicle; [3]): 28%; inhibition in vivo at 0.5 mg (rat prostate; [4]): 6%
CCCC(NC(CC)CC)c1cccc(OCC[C@]23CCC4C5CCC(=O)C=C5C[C@@H](C)C4C2CC[C@@H]3O)c1 (mixture of isomers) [EM-7128] | 120% | – | 0.75 nM | – | – | 2% | 41% | –
CCC(NC1CCCC1)c1cccc(OCC[C@]23CCC4C5CCC(=O)C=C5C[C@@H](C)C4C2CC[C@]3(C)O)c1 (mixture of isomers) [EM-6733] | 62% | – | 1.3 nM | – | – | – | 34% | IN VIVO Rat (+DHT) SV % inhibition (per os) (rat seminal vesicle; per os, +DHT): 6%; IN VIVO Rat (+DHT) Prostate % inhibition (per os) (rat prostate; per os, +DHT): 34%
CC(C)CNC(C)(C)c1cccc(OCC[C@]23CCC4C(CCC5CC(=O)CC[C@@]54C)C2CCC3=O)c1 (stereo partly drawn) [EM-6741] | – | 230% | – | 0.6 nM | 153 | – | – | inhibition in vivo at 0.01 mg [1]: 51.7%
CCC(CC)N(C)C(CC)c1cccc(OCC[C@]23CCC4C5CCC(=O)C=C5C[C@@H](C)C4C2CC[C@]3(C)O)c1 (mixture of isomers) [EM-7127] | 128% | – | 0.91 nM | – | – | 0% | 20% | –
CCCC(NC(CC)CC)c1cccc(OCC[C@]23CCC4C(CCC5=CC(=O)CC[C@@]54C)C2CC[C@@H]3O)c1 (stereo partly drawn) [EM-6841] | 139% | – | – | – | – | – | – | IN VIVO Rat s.c. (+DHT) SV % inhibition (rat seminal vesicle; [9]): 5%; IN VIVO Rat s.c. (+DHT) Prostate % inhibition (rat prostate; [9]): 21%; IC50 [2, 10]: 0.1 nM
CCC(CC)NC(CC)c1cccc(OCC[C@]23CCC4C(CCC5CC(=O)CC[C@@]54C)C2CC[C@@H]3O)c1 (stereo partly drawn) [EM-6339] | 240% and 236% | 236% | 2.3 nM | 2.3 nM | – | – | – | inhibition in vivo at 0.01 mg [1]: 55%; inhibition in vivo at 0.1 mg [1]: 67%; IC50 [2, 10]: 3 nM; IC50 ([2]; read-out: Shionogi IC50, Table 4, inhibition of DHT-stimulated Shionogi cell number): 3 nM
CC(NC1CCCCC1)c1cccc(OCC[C@]23CCC4C(CCC5C/C(=N\O)CC[C@@]54C)C2CC[C@@H]3O)c1 (stereo partly drawn) [EM-6418] | 31% | – | 5 nM | – | – | 13% | 21% | IN VIVO Rat (+DHT) SV % inhibition (per os) (rat seminal vesicle; per os, +DHT): 32%; IN VIVO Rat (+DHT) Prostate % inhibition (per os) (rat prostate; per os, +DHT): 16%
CCCC(NC(CC)CC)c1cccc(OCC[C@]23CCC4C5CCC(=O)C=C5C(C)(C)CC4C2CC[C@]3(C)O)c1 (mixture of isomers) [EM-7075] | 57% | – | 9.7 nM | – | – | 0% | 0% | –
CCC(CC)N(C)C(CC)c1cccc(OCC[C@]23CCC4=C5CCC(=O)C=C5CCC4C2CC[C@@H]3O)c1 (mixture of isomers) [EM-6860] | 33% | – | 5.2 nM | – | – | 0% | 12% | –
CCC(NC1CCCC1)c1cc(F)cc(OCC[C@]23CCC4C(CCC5CC(=O)CC[C@@]54C)C2CC[C@@H]3O)c1 (stereo partly drawn) [EM-6761] | 141% | – | 1.2 nM | – | – | 0% | 33% | –
CCC(CC)N(C)C(CC)c1cccc(OCC[C@]23CCC4C5CCC(=O)C=C5CCC4C2CC[C@]3(C)O)c1 (stereo partly drawn) [EM-6902] | 107% | – | 0.06 nM | – | – | 0% | 2% | –
CCC(NC1CCCC1)c1cccc(OCC[C@]23CCC4C5CCC(=O)C=C5C[C@@H](C)C4C2CC[C@@H]3O)c1 (mixture of isomers) [EM-6681] | 56% | – | 1.1 nM | – | – | 19% | 15% | –
